The record followed here is US10030020B2, “Spirocycle compounds and methods of making and using same” (Abide Therapeutics, Inc., priority 2016, dated 2018).

Some results are limits rather than exact numbers.

For orientation: IC50 means the point on the concentration scale where inhibition reaches its midpoint. The low end stands for inhibition by little substance, the high end for a need for much substance.

For experiment [1], the target named is T1, ABHD6 (Mus musculus (Mouse), UniProt Q8R2Y0). The experiment in a line: Mouse brain proteomes from inhibitor treated mice (oral gavage, sacrificed 4 h after administration, ABPP analysis), ABHD6. The settings on record: 5 mg/kg oral gavage. It is filed as in vivo, mouse (C57Bl/6J). An outline of the steps:
(§1)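 Read-out is % inhibition at 5 mg/kg in brain proteomes profiled by activity-based protein profiling. Inhibitors were dosed orally to wild-type C57Bl/6J mice, with sacrifice at 4 h.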

Experiment [2] has as its target T2, MAGL (Mus musculus (Mouse), UniProt O35678). The experiment in a line: In vitro competitive activity-based protein profiling (mouse brain membrane fraction or cell lysates), MAGL band. The class given is biochemical. The note with it: mouse proteome; for inhibition at 1 µM: read-out: MAGL % Inh 1 μM (mouse); for IC50: competitive ABPP. As for the experimental part:
In Vitro Competitive Activity-Based Protein Profiling.
Proteomes (mouse brain membrane fraction or cell lysates) (50 μL, 1.0 mg/mL total protein concentration) were preincubated with varying concentrations of inhibitors at 37° C. After 30 min, FP—Rh (1.0 μL, 50 μM in DMSO) was added and the mixture was incubated for another 30 min at 37° C. Reactions were quenched with SDS loading buffer (50 μL-4×) and run on SDS-PAGE.

For experiment [3], the target named is T3, FAAH (Mus musculus (Mouse), UniProt O08914). In words: Mouse brain proteomes from inhibitor treated mice (oral gavage, sacrificed 4 h after administration, ABPP analysis), FAAH. It is filed as in vivo, mouse (C57Bl/6J). The settings on record: 5 mg/kg oral gavage. The essentials: as §1
T3 sequence (O08914 whole entry): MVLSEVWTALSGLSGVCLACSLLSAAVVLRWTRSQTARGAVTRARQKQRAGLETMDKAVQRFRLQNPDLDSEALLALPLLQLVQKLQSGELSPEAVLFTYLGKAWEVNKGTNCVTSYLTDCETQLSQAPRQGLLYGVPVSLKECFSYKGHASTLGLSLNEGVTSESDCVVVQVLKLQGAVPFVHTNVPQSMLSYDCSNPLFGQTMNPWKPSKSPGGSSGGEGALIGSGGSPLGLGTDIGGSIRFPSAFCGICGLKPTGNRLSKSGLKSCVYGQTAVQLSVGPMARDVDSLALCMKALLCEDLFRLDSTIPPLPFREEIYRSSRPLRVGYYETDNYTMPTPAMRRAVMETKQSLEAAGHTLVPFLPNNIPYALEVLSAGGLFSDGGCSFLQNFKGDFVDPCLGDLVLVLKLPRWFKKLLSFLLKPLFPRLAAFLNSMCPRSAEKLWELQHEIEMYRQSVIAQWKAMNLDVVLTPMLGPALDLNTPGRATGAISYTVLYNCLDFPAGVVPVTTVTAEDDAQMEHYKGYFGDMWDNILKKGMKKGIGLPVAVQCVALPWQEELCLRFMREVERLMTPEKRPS
In experiment [4] the target is T1, ABHD6. The experiment in a line: In vitro competitive activity-based protein profiling (mouse brain membrane fraction or cell lysates), ABHD6 band. The note with it: mouse proteome; for inhibition at 1 µM: read-out: ABHD6 % Inh 1 μM (mouse); for IC50: competitive ABPP. The class given is biochemical. The essentials: (§2)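 Competitive ABPP: proteome 1.0 mg/mL protein + inhibitor, 30 min, 37° C; FP-Rh probe (stock 50 μM in DMSO) added, 30 min, 37° C; SDS quench, SDS-PAGE, fluorescent band intensity read.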

In experiment [5] the target is T2, MAGL. In words: Mouse brain proteomes from inhibitor treated mice (oral gavage, sacrificed 4 h after administration, ABPP analysis). The class given is in vivo, mouse (C57Bl/6J). The settings on record: 5 mg/kg oral gavage. The essentials:
as §1

The target of experiment [6] is T3, FAAH. In words: In vitro competitive activity-based protein profiling (mouse brain membrane fraction or cell lysates), FAAH band. The class given is biochemical. The note with it: mouse proteome; for inhibition at 1 µM: read-out: FAAH % Inh 1 μM (mouse); for IC50: competitive ABPP. An outline of the steps:
as §2

T1 sequence (Q8R2Y0 whole entry): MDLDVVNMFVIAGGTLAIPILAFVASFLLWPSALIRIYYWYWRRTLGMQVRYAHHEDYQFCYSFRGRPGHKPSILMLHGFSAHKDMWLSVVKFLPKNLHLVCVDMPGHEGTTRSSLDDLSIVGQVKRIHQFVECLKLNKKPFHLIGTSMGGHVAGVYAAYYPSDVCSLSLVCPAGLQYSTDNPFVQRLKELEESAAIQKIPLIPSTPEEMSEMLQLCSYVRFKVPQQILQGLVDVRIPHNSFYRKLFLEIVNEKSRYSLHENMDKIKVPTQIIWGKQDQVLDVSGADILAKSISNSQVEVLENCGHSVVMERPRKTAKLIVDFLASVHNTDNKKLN
T2 sequence (O35678 whole entry): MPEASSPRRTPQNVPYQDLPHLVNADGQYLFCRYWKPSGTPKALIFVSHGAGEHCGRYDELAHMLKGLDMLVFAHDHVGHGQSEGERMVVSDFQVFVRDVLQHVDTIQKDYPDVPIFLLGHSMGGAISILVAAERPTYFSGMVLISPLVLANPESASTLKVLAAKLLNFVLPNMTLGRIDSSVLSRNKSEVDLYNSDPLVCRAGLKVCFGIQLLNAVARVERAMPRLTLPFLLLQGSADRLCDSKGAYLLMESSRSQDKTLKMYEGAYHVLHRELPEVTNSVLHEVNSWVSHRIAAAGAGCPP

Take `O=C(OC(C(F)(F)F)C(F)(F)F)N1CCC2(CCCN2Cc2ccc(C(F)(F)F)cc2N2CCC(F)(F)CC2)CC1` [Example 90, 1,1,1,3,3,3-Hexafluoropropan-2-yl 1-(2-(4,4-difluoropiperidin-1-yl)-4-(trifluoromethyl)benzyl)-1,8-diazaspiro[4.5]decane-8-carboxylate]: the “ABHD6 % Inh 5 mg/kg (mouse)” value at ABHD6 [1] was “# (# is <25%)”. Moreover, the inhibition at 1 µM is more than 75% on MAGL [2], less than 25% at ABHD6 [4] and less than 25% on FAAH [6]. Besides, the IC50 on MAGL [2] is less than 100 nM; on ABHD6 [4], more than 1000 nM; at FAAH [6] it was more than 1000 nM. The “FAAH % Inh 5 mg/kg (mouse)” value at FAAH [3] is recorded as “# (# is <25%)”. The “MAGL % Inh 5 mg/kg (mouse)” value on MAGL [5] was “## (## is equal to or greater than 25% but less than 75%)”.
Take `O=C(OC(C(F)(F)F)C(F)(F)F)N1CCC2(CCCN2Cc2ccc(C(F)(F)F)cc2N2CCC(F)CC2)CC1` [Example 91, 1,1,1,3,3,3-Hexafluoropropan-2-yl 1-(2-(4-fluoropiperidin-1-yl)-4-(trifluoromethyl)benzyl)-1,8-diazaspiro[4.5]decane-8-carboxylate]: on ABHD6 [1], the “ABHD6 % Inh 5 mg/kg (mouse)” value is given as “# (# is <25%)”. Moreover, the inhibition at 1 µM on MAGL [2] is more than 75%; on ABHD6 [4] it was less than 25%; at FAAH [6] it was less than 25%. The IC50 on MAGL [2] is less than 100 nM; on ABHD6 [4], more than 1000 nM; on FAAH [6] it was more than 1000 nM. At FAAH [3], the “FAAH % Inh 5 mg/kg (mouse)” value was “# (# is <25%)”. The “MAGL % Inh 5 mg/kg (mouse)” value at MAGL [5] was “### (### is ≥75%)”.
As for `CC(=O)NC1CCN(c2cc(C(F)(F)F)ccc2CN2CCCC23CCN(C(=O)OC(C(F)(F)F)C(F)(F)F)CC3)CC1` [Example 93, 1,1,1,3,3,3-Hexafluoropropan-2-yl 1-(2-(4-acetamidopiperidin-1-yl)-4-(trifluoromethyl)benzyl)-1,8-diazaspiro[4.5]decane-8-carboxylate], the “ABHD6 % Inh 5 mg/kg (mouse)” value at ABHD6 [1] is given as “# (# is <25%)”. Further, the inhibition at 1 µM is more than 75% at MAGL [2], less than 25% at ABHD6 [4] and less than 25% at FAAH [6]. Also, the values for the IC50 at MAGL [2], at ABHD6 [4] and on FAAH [6] were less than 100 nM, more than 1000 nM and more than 1000 nM, respectively. In addition, the “FAAH % Inh 5 mg/kg (mouse)” value on FAAH [3] was “# (# is <25%)”. For the same compound, the “MAGL % Inh 5 mg/kg (mouse)” value on MAGL [5] is given as “### (### is ≥75%)”.
As to `CS(=O)(=O)NC1CCN(c2cc(C(F)(F)F)ccc2CN2CCCC23CCN(C(=O)OC(C(F)(F)F)C(F)(F)F)CC3)CC1` [Example 94, 1,1,1,3,3,3-Hexafluoropropan-2-yl 1-(2-(4-(methylsulfonamido)piperidin-1-yl)-4-(trifluoromethyl)benzyl)-1,8-diazaspiro[4.5]decane-8-carboxylate], the “ABHD6 % Inh 5 mg/kg (mouse)” value on ABHD6 [1] is “# (# is <25%)”. Also, the inhibition at 1 µM was more than 75% at MAGL [2], less than 25% on ABHD6 [4] and less than 25% at FAAH [6]. Moreover, the values for the 50% inhibitory concentration (IC50) on MAGL [2], at ABHD6 [4] and on FAAH [6] were less than 100 nM, more than 1000 nM and more than 1000 nM, respectively. In addition, the “FAAH % Inh 5 mg/kg (mouse)” value on FAAH [3] was “# (# is <25%)”. Also, the “MAGL % Inh 5 mg/kg (mouse)” value on MAGL [5] is “# (# is <25%)”.
As for `O=C(OC(C(F)(F)F)C(F)(F)F)N1CCC2(CCCN2Cc2ccc(C(F)(F)F)cc2N2CCC2)CC1` [Example 96, 1,1,1,3,3,3-Hexafluoropropan-2-yl 1-(2-(azetidin-1-yl)-4-(trifluoromethyl)benzyl)-1,8-diazaspiro[4.5]decane-8-carboxylate], the “ABHD6 % Inh 5 mg/kg (mouse)” value at ABHD6 [1] is on record as “# (# is <25%)”. The inhibition at 1 µM is more than 75% at MAGL [2], less than 25% on ABHD6 [4] and less than 25% at FAAH [6]. The IC50 at MAGL [2] is less than 100 nM; on ABHD6 [4], more than 1000 nM; on FAAH [6] it was more than 1000 nM. At FAAH [3], the “FAAH % Inh 5 mg/kg (mouse)” value is given as “# (# is <25%)”. For the same compound, at MAGL [5], the “MAGL % Inh 5 mg/kg (mouse)” value was “### (### is ≥75%)”.
As to `O=C(OC(C(F)(F)F)C(F)(F)F)N1CCC2(CCCN2Cc2ccc(C(F)(F)F)cc2N2CC3COCC3C2)CC1` (stereo not drawn) [Example 97, 1,1,1,3,3,3-Hexafluoropropan-2-yl 1-(2-(tetrahydro-1H-furo[3,4-c]pyrrol-5(3H)-yl)-4-(trifluoromethyl)benzyl)-1,8-diazaspiro[4.5]decane-8-carboxylate], the “ABHD6 % Inh 5 mg/kg (mouse)” value at ABHD6 [1] is recorded as “# (# is <25%)”. Besides, the figures for the inhibition at 1 µM at MAGL [2], at ABHD6 [4] and on FAAH [6] were more than 75%, less than 25% and less than 25%, respectively. In addition, the IC50 was less than 100 nM on MAGL [2], more than 1000 nM at ABHD6 [4] and more than 1000 nM at FAAH [6]. Besides, the “FAAH % Inh 5 mg/kg (mouse)” value at FAAH [3] is given as “# (# is <25%)”. Also, the “MAGL % Inh 5 mg/kg (mouse)” value on MAGL [5] is “### (### is ≥75%)”.
In the case of `CC(=O)N1CCN(c2cc(Cl)ccc2CN2CCCC23CCN(C(=O)OC(C(F)(F)F)C(F)(F)F)CC3)CC1` [Example 99, 1,1,1,3,3,3-Hexafluoropropan-2-yl 1-(2-(4-acetylpiperazin-1-yl)-4-chlorobenzyl)-1,8-diazaspiro[4.5]decane-8-carboxylate], the “ABHD6 % Inh 5 mg/kg (mouse)” value on ABHD6 [1] was “# (# is <25%)”. Further, the inhibition at 1 µM on MAGL [2] is more than 75%; at ABHD6 [4] it was less than 25%; on FAAH [6], less than 25%. For the same compound, the half-inhibitory concentration (IC50) at MAGL [2] is less than 100 nM; at ABHD6 [4] it was more than 1000 nM; at FAAH [6], more than 1000 nM. At FAAH [3], the “FAAH % Inh 5 mg/kg (mouse)” value is recorded as “# (# is <25%)”. Moreover, at MAGL [5], the “MAGL % Inh 5 mg/kg (mouse)” value is “### (### is ≥75%)”.
As to `CS(=O)(=O)N1CCN(c2cc(Cl)ccc2CN2CCCC23CCN(C(=O)OC(C(F)(F)F)C(F)(F)F)CC3)CC1` [Example 100, 1,1,1,3,3,3-Hexafluoropropan-2-yl 1-(4-chloro-2-(4-(methylsulfonyl)piperazin-1-yl)benzyl)-1,8-diazaspiro[4.5]decane-8-carboxylate], on ABHD6 [1], the “ABHD6 % Inh 5 mg/kg (mouse)” value was “# (# is <25%)”. The values for the inhibition at 1 µM at MAGL [2], on ABHD6 [4] and on FAAH [6] were more than 75%, less than 25% and less than 25%, respectively. The results for the concentration for half-maximal inhibition (IC50) on MAGL [2], on ABHD6 [4] and at FAAH [6] were less than 100 nM, more than 1000 nM and more than 1000 nM, respectively. For the same compound, the “FAAH % Inh 5 mg/kg (mouse)” value at FAAH [3] is given as “# (# is <25%)”. Besides, the “MAGL % Inh 5 mg/kg (mouse)” value at MAGL [5] is recorded as “### (### is ≥75%)”.
For `O=C(OC(C(F)(F)F)C(F)(F)F)N1CCC2(CCCN2Cc2ccc(Cl)cc2N2CCC(F)(F)CC2)CC1` [Example 101, 1,1,1,3,3,3-Hexafluoropropan-2-yl 1-(4-chloro-2-(4,4-difluoropiperidin-1-yl)benzyl)-1,8-diazaspiro[4.5]decane-8-carboxylate], the “ABHD6 % Inh 5 mg/kg (mouse)” value on ABHD6 [1] is recorded as “# (# is <25%)”. Also, the results for the inhibition at 1 µM on MAGL [2], at ABHD6 [4] and at FAAH [6] were more than 75%, less than 25% and less than 25%, respectively. Also, the 50% inhibitory concentration (IC50) on MAGL [2] is less than 100 nM; at ABHD6 [4], more than 1000 nM; on FAAH [6] it was more than 1000 nM. In addition, the “FAAH % Inh 5 mg/kg (mouse)” value at FAAH [3] is “# (# is <25%)”. The “MAGL % Inh 5 mg/kg (mouse)” value on MAGL [5] is “### (### is ≥75%)”.
